# Experimental data from PubChem BioAssay AID179 (DTP/NCI, 2004).
# pEC50, pIC50: −log10 of the molar value. Activity calls are given as the source filed them.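 Rule for the calls: active = compounds giving half or more protection of infected cells from virus-caused growth loss, again on retest; inactive = the rest.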 Where a SMILES comes first, the peptide text is derived from it.
# System: CEM cells HIV-1 protection, formazan growth assay
# Experiment: NCI AIDS Antiviral Assay
# Settings: for pIC50: measured here: growth of uninfected CEM cells
# Procedure, shortened: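 Five concentrations of each compound were applied to infected and uninfected human CEM cells. Protection from HIV-1 was judged from growth measured with a soluble formazan assay.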
SMILES,pEC50,pIC50,outcome
CC1=CC(=O)/C(=C/n2c(=S)[nH]c3ccccc32)C(=O)O1,< 3.70,< 3.70,–
CC(C)c1cc(=O)[nH]c2cc(N)ccc12,< 3.70,< 3.70,–
O=C(O/N=C1/CCC/C1=C\c1ccccc1)c1ccc(Cl)cc1,–,–,inactive
CC1CN=C(Nc2ccc(F)cc2F)S1 (centres undefined),< 3.70,< 3.70,–
O=c1scc(-c2ccc([N+](=O)[O-])cc2)s1,< 5.22,< 5.22,–
O=C1c2c(O)ccc(O)c2C(=O)c2c(NCCCO)ccc(NCCCO)c21,4.87,4.73,–
Clc1ccccc1C1SCc2nc3ncccc3n21 (centres undefined),< 4.04,4.17,–
CCc1c(Cc2ccccc2)n(COCCCO)c(=O)[nH]c1=O,5.15,5.00,–
Cc1ccc2oc(-c3nnc(N)s3)cc(=O)c2c1,< 4.55,< 4.55,–
CC1=C2CCCC2=C/C(=N/Nc2ccc([N+](=O)[O-])cc2[N+](=O)[O-])CC1,–,–,inactive
NC(=O)N1c2ccccc2C=Cc2ccccc21,< 3.70,< 3.70,–
Cc1c(CCOC=O)c(=O)[nH]c2nncn12,4.85,< 3.70,–
Nc1ccc(S2(c3ccc(N)cc3)C=C(c3ccccc3)C(c3ccccc3)=C2)cc1,< 3.70,< 3.70,–
CC1(C)CC23C(=O)N(c4ccccc4)C(=Nc4ccccc4)NC2=CC(C#N)=C(C#N)C3O1 (centres undefined),< 4.92,< 4.92,–
C=CCC1([C@H](C)[C@@H](OC(C)=O)c2cc(OC)c(OC)c(OC)c2)C[C@@H](OC)CCC1=O (some centres undefined),< 3.94,5.22,–
Cc1n[nH]c(=O)n1C1CC1,< 3.70,< 3.70,–
C1CCC(CSSCC2(N3CCCC3)CCCCC2)(N2CCCC2)CC1,< 3.70,< 4.00,–
COc1ccc(C2(OC)Oc3cc(OC)ccc3C(=O)C2(O)OC)cc1 (centres undefined),< 3.70,4.96,–
COP(=O)(OC)/C(=C/c1c[nH]c2ccccc12)C(=O)O,< 3.70,< 3.70,–
COc1cccc(N2C(=O)C3c4[nH]c5ccc(C)cc5c4C4CCC(C(C)(C)C)CC4C3C2=O)c1 (centres undefined),< 3.70,5.02,–
O=C1CC(c2ccccc2)S(=O)(=O)c2ccccc2N1 (centres undefined),< 3.70,< 3.70,–
CN(C)c1cccc2c(S(=O)(=O)NCCN)cccc12,< 3.70,3.76,–

SMILES,pEC50,pIC50,outcome
CN1CC(c2ccccc2)=Cc2c1ccc(N)c2N=N,< 3.70,< 3.70,–
CC(=O)NC(CC(C)C)C(=O)NC(CC(=O)O)C(=O)NC(CCCCN)C(=O)NC(C)C(=O)NC(CO)C(=O)NC(Cc1ccc(O)cc1)C(=O)NC(CO)C(=O)NC(C(=O)NC(CC(N)=O)C(=O)NC(Cc1cnc[nH]1)C(=O)NC(CC(C)C)C(N)=O)C(C)O (centres undefined) (Ac-LDKASYSTNHL-NH2; configuration not given here),< 4.32,< 4.32,–
COC1=C(C)C2CC(=O)OC3CC4C(C)CC(O)C(=O)[C@]4(C)C(C1=O)[C@@]32C (some centres undefined),–,–,inactive
C=C1c2nc3ccccc3n2C=C(c2ccccc2)N1c1ccc(C)cc1,< 3.70,4.55,–
N#C/C(=C\c1ccccc1)c1cccc(F)c1,< 3.70,4.33,–
O=[N+]([O-])c1cc(S(=O)(=O)c2ccc(N(CCO)CCO)c([N+](=O)[O-])c2)ccc1N(CCO)CCO,< 3.70,4.45,–
O=[N+]([O-])c1ccc2cnn(CSP(=S)(c3ccccc3)c3ccccc3)c2c1,< 3.70,5.52,–
Cc1nnc2nc(-c3ccccc3)nc(-c3ccccc3)n12,< 3.70,< 3.70,–
Cn1nc2ccc3nccc(N(CCO)CCO)c3c2n1,< 3.20,4.50,–
ClCCNCCNCCCl.O=c1cccccc1[O-].O=c1cccccc1[O-].[Co+3].[O-][Cl+3]([O-])([O-])[O-],< 3.70,5.30,–
CCCCCCCCCCC(c1ccc(O)c(C(=O)O)c1)c1ccc(O)c(C(=O)O)c1,< 3.35,3.97,–
CCOP(=O)(OCC)Oc1c(OC)c2[nH]c(C(=O)OC)cc2c2c(C(=O)O)c[nH]c12,< 3.70,< 3.70,–
CCN(CC)CCn1c(=O)c2cccnc2n2c3c(=O)n(C)c(=O)n(C)c3nc12,< 3.89,4.22,–
O=C(O)C1C=CC(c2ccc(Cl)cc2)=N1 (centres undefined),< 3.70,< 3.70,–
Cn1c(=O)nc2n(-c3ccc(Cl)cc3Cl)c3ccccc3nc-2c1=O,–,–,inactive
CCOCCCCS(=O)(=O)O,< 3.70,< 3.70,–
CC1(C)C(C#N)C(=O)N=C(N)C1C(N)=O (centres undefined),< 3.70,< 3.70,–
CCCCCCCCCCCSSCCCCCCCCCCC,< 3.70,< 3.70,–
CC(=O)/C=C/c1ccc(C2CC(C)=Nc3c(ccc4c3C(=O)c3ccccc3C4=O)N2)cc1 (centres undefined),< 5.20,< 5.20,–
Cc1cc(C)c(C2=NOC(c3ccccc3)(c3cc(=O)n(-c4ccccc4)s3)O2)c(C)c1 (centres undefined),5.07,4.42,–
CC(C)(C)CP(=S)(CCP(CCP(=S)(CC(C)(C)C)CC(C)(C)C)CCP(=S)(CC(C)(C)C)CC(C)(C)C)CC(C)(C)C,< 4.91,< 4.91,–
CCC[CH2][Sn]([CH2]CCC)([O]C(=O)c1cc(OC)c(OC)cc1OC)[O][Sn]([CH2]CCC)([CH2]CCC)[O]C(=O)c1cc(OC)c(OC)cc1OC,< 4.96,6.52,–

SMILES,pEC50,pIC50,outcome
NC(=O)C(=CN1C(=O)/C(=C\c2cccc(O)c2)SC1=S)C(N)=O,< 3.70,3.97,–
NC(=S)N/N=C\NN/C=N/NC(N)=S,< 3.70,3.99,–
CCC(=O)CCC1=Nc2nnc(CCCCc3nnc4n3C(=O)C(CCC(=O)CC)=N4)n2C1=O,3.37,3.27,–
CC1(C)C(=O)/C(=C/c2ccccc2)C(C)(C)C1(C)C,–,–,inactive
N=C(c1ccccc1)N(O)C1CCCCC1,–,–,inactive
O=P1(CCc2ccc(Cl)cc2)CC(Br)C(Br)C1 (centres undefined),< 3.20,4.42,–
COC(=O)C1=C(C)NC2=C(C(=O)c3ccccc32)C1c1cn(-c2ccccc2)nc1-c1ccccc1 (centres undefined),< 3.70,5.06,–
O/N=C1/CCC/C1=C\c1ccccc1,–,–,inactive
CN1CC2(c3ccccc3)CN(C)CC(c3ccccc3)(C1)C2=O,< 3.95,< 3.95,–
CN(C)c1ccc(/C=C(\C#N)c2ccc(Cl)cc2Cl)cc1,< 3.70,5.47,–
Cc1ccc(-c2c(C#N)c(-c3ccc([N+](=O)[O-])cc3)c(C#N)c(=O)n2NS(=O)(=O)c2ccc(C)cc2)cc1,< 3.70,4.92,–
Cc1ccc([N+](=O)[O-])cc1NC(=O)/C(CC(=O)c1sc(C(N)=S)nc1C)=N\N,–,–,inactive
CCCCCCOP(=O)(OCCCCCC)C(NC(=O)OCC)(C(F)(F)F)C(F)(F)F,< 3.70,4.66,–
Cc1ccc(S(=O)(=O)N/N=C2/C3C(CC2(C)C)C2(C)CCCC3(C)C2O)cc1 (centres undefined),< 3.70,< 3.70,–
COC(=O)/C(=C/c1ccc(OC)cc1)C(C(=O)O)=C(C)C,< 3.06,4.95,–
O=C(O)c1c2c(cc3c1CC(Cc1ccccc1)C3=O)CCC2 (centres undefined),< 3.70,4.19,–
CCCCOC(=S)SSC(=S)NCCNC(=S)SSC(=S)OCCCC,< 3.70,4.26,–
CC(=O)C1CCC2[C@@H]3CCC4c5nn(-c6ccccc6)nc5CC[C@]4(C)C3CC[C@]12C (some centres undefined),–,–,inactive
CSC1OC(C)(C)OC1=O (centres undefined),< 3.70,< 3.70,–
Cc1c(-c2ccccc2)nn2cc(-c3ccccc3)nnc12,< 3.70,4.96,–
CN1CC(c2ccccc2)N(CCCCN2CC(c3ccccc3)N(C)CC2c2ccccc2)CC1c1ccccc1 (centres undefined),< 4.00,4.23,–
Cn1c(=O)c2c(nc3n(Cc4ccccc4)c(=O)c(NCCCBr)cn23)n(C)c1=O,4.51,4.38,–

SMILES,pEC50,pIC50,outcome
NC(N)=NS(=O)(=O)c1ccc(NC(=O)c2cccn3c(=O)c4ccccc4nc23)cc1,–,–,inactive
CCOC(=O)CC1c2ccc(O)cc2OC(=O)C1c1ccc(N)cc1 (centres undefined),< 3.70,< 3.70,–
CCCCCCCCCCCCCCCCN[Si](NCCCCCCCCCCCCCCCC)(NCCCCCCCCCCCCCCCC)NCCCCCCCCCCCCCCCC,< 3.62,3.86,–
Cc1cccc(C2=C/C(=C(\SS/C(C(=O)c3ccc(OCC(=O)O)c(Cl)c3Cl)=C3\C=C(c4cccc(C)c4)SS3)C(=O)c3ccc(OCC(=O)O)c(Cl)c3Cl)SS2)c1,–,–,inactive
O=C1c2cccn2-c2ccccc2SC1c1ccccc1 (centres undefined),< 3.70,4.69,–
CC1S/C(=N\N=C\c2ccc(Cl)cc2)N=C1c1c(O)c2ccccc2oc1=O (centres undefined),< 3.70,4.44,–
O=[N+]([O-])c1cc(F)ccc1Sc1ccccc1,< 3.70,4.02,–
CC1(c2ccccc2)N=C(C(N)=O)c2[nH]cnc2N1 (centres undefined),< 3.70,< 3.70,–
COc1ccc2c(c1)-c1[nH]c3ccccc3c1CC2,< 3.70,4.92,–
O=C(/C=C/NC(=O)OCc1ccccc1)OCc1ccccc1,< 3.70,< 3.70,–
COc1ccc2c(c1OC)C1N(C)CCc3cc4c(cc3C1(OC)C2=O)OCO4 (centres undefined),–,–,inactive
CN(C)c1ccc(-c2c(C#N)c(O)n(NS(=O)(=O)c3ccccc3)c(=O)c2C#N)cc1,< 3.70,< 3.70,–
CC1=C2N3C[C@@H](n4c(=O)n(C)c(=O)n43)C23CCC1n1c(=O)n(C)c(=O)n13,< 4.14,< 4.14,–
COc1cc(O)c2c(=O)c(OC)c(-c3ccc(OC)c(OC)c3)oc2c1,–,–,inactive
C[C@H](NC(=O)OC1C2C=CC(O)C1CC2)c1ccccc1 (some centres undefined),< 3.06,3.11,–
CN1CCC/C1=C1\C(=O)c2cccn2C1=O,< 3.70,< 3.70,–
CN(C)c1ccc(/C=C2/NC(=S)NC2=O)cc1,< 3.70,4.70,–
Cc1ccc(S)c(C(O)(C(F)(F)F)C(F)(F)F)c1,< 3.70,4.92,–
COc1ccc(C(C)=O)cc1CN1CCN(Cc2cc(C(C)=O)ccc2OC)CC1,< 4.48,< 4.48,–
O=C1C(Cl)N(c2cccc([N+](=O)[O-])c2)C1c1c[nH]c2ccccc12 (centres undefined),< 3.98,5.30,–
